Test results published in patent publication US12686727B2, “Antibodies for binding plasmin” (MONASH UNIVERSITY, priority 2019, dated 2026).

B1: alpha-2-antiplasmin (protein)
chain: NQEQVSPLTLLKLGNQEPGGQTALKSPPGVCSRDPTPEQTHRLARAMMAFTADLFSLVAQTSTCPNLILSPLSVALALSHLALGAQNHTLQRLQQVLHAGSGPCLPHLLSRLCQDLGPGAFRLAARMYLQKGFPIKEDFLEQSEQLFGAKPVSLTGKQEDDLANINQWVKEATEGKIQEFLSGLPEDTVLLLLNAIHFQGFWRNKFDPSLTQRDSFHLDEQFTVPVEMMQARTYPLRWFLLEQPEIQVAHFPFKNNMSFVVLVPTHFEWNVSQVLANLSWDTLHPPLVWERPTKVRLPKLYLKHQMDLVATLSQLGLQELFQAPDLRGISEQSLVVSGVQHQSTLELSEVGVEAAAATSIAMSRMSLSSFSVNRPFLFFIFEDTTGLPLFVGSVRNPNPSAPRELKEQQDSPGNKDFLQSLKGFPRGDKLFGPDLKLVPPMEEDYPQFGSPK

System: whole blood clots
Test: Whole blood clot lysis induced by tPA
Assay type: cell-based, human
Conditions: for inhibition of clot lysis at high concentrations: up to 1,000 nM
Protocol: Whole blood clots were formed from human blood collected from healthy donors. Halo-shaped clots were generated by mixing whole blood with 15% of a mixture containing recombinant tissue factor supplemented with synthetic phospholipids Dade Innovin, Siemens Germany and 67 mM CaCl2 in HBS at 1:4 ratio. The plate was sealed and incubated at 37° C. for 60 min before use.
Clot lysis was induced by the addition of tPA to 7 nM and antibodies or Plm inhibitors at the following concentrations: 0-312.5 nM B10; 0-1000 nM α2AP; 0-1000 nM aprotinin; 0-7.5 mM TXA. Clot lysis leads to an […] of turbidity and was monitored at OD610 nm using a plate reader.
The time required to achieve 50% clot lysis was used for IC50 calculation. […] B10 was more than 180-fold more efficacious than TXA (not shown).

Row | Molecule | concentration of total inhibition of clot lysis (7 nM tPA, data not shown) [µM] | effect on clot lysis (concentration up to 100 μM) | inhibition of clot lysis at high concentrations
1 | NC[C@H]1CC[C@H](C(=O)O)CC1 [TXA, tranexamic acid, reference compound] | ≥ 300 | delayed clot lysis | 
2 | Aprotinin [reference compound] |  |  | only partially inhibit clot lysis
3 | B1 |  |  | only partially inhibit clot lysis
